Measurements as given in patent US20210299044A1, “SYSTEMS AND METHODS FOR DELIVERY OF DRUGS AND OTHER SUBSTANCES COMPRISING DEEP EUTECTIC SOLVENTS” (Novilla Pharmaceuticals, Inc., priority 2018, published 2021).

Columns and labels:
[1] = values stated in description, no method given; cited from earlier work
[2] = Hydrolysis of aspirin in choline chloride/urea deep eutectic solvent, determined using HPLC; assay type: physicochemical
Procedure: In this example, an aspirin formulation was prepared using choline chloride and urea. In this example, choline chloride was heated in an oven at 65° C. for 10 hours. Then, 1 part choline chloride (by volume) was added to 2 parts urea in a beaker. The beaker was sealed with parafilm and the choline chloride and urea allowed to mix to form a deep eutectic solvent (DES). Next, the mixture was passed through a 4A 8-12 mesh molecular sieve, and stirred overnight, to form anhydrous DES.
50 mg/ml of aspirin was then added to the DES. […] The hydrolysis was determined using HPLC.
It is believed that heating the choline chloride removes water.

| aspirin found to have hydrolyzed ([2]; 50 mg/ml aspirin in anhydrous DES (1 part choline chloride : 2 parts urea by volume), choline chloride heated at 65° C. for 10 hours, molecular sieve, HPLC) | aspirin found to hydrolyze ([2]; comparison: choline chloride and urea mixed without heating the choline chloride, same procedure otherwise) | SMILES | pKa [1] |
| --- | --- | --- | --- |
| – | – | CN(C)CCc1c[nH]c2ccc(CS(=O)(=O)N3CCCC3)cc12 [almotriptan] | 8.77 |
| 1% | over 8% | CC(=O)Oc1ccccc1C(=O)O [aspirin, acetylsalicylic acid] | – |
| – | – | CN[C@@H]1CCc2[nH]c3ccc(C(N)=O)cc3c2C1 [frovatriptan] | 17.27 |
